Source: patent US20090005424A9, “Composition and Method for Treating Fibrotic Diseases” (priority 2005, published 2009)

What was measured:
[1] = system: SD rat, Unilateral Ureteral Obstruction (UUO) model; assay: Rat UUO model of renal interstitial fibrosis, histological score (Example 8); format: in vivo; conditions: UUO rats; AKF-PD 500 mg/kg/d, Enalapril 10 mg/kg/d by gavage; 14 days post surgery; Radford's method
Procedure: Anti-fibrotic effect of AKF-PD was tested on a SD rat model for renal interstitial fibrosis induced by surgical ligation of single side ureter (Unilateral Ureteral Obstruction, UUO, model). Eight weeks old male SD rats (180 g˜220 g) were randomly divided into sham surgical group, disease model group, Enalapril (10 mg/kg/d) group and AKF-PD (500 mg/kg/d) group. […] The animals of the sham surgical group experienced the same surgical procedure except the ligation step. The respective drugs were administrated by gavage to rats in the groups of Enalapril and AKF-PD from one day prior to the procedure to 14 days post surgical procedure. Normal saline was administrated in a similar fashion to the rats in the groups of disease model and sham surgical. The animals were sacrificed 14 days after surgical procedure and their left kidney were removed for pathological (HE staining) examination. Histological scoring for interstitial compartment was done according to Radford's method (Radford et al., Predicting renal outcome in IgA nephropathy. J. Am. Soc. Nephrol. 8: 199-207(1997)).

[2] = system: TGF-β production and type I & III collagen accumulation in rat UUO model; assay: Rat UUO model, immunohistochemistry of TGF-β and type I & III collagen; format: in vivo; conditions: kidney of UUO rats
Procedure: Similar to the example 8, Kidney fibrosis was induced by Unilateral Ureteral Obstruction. And the animal experiments were performed to investigate whether AKF-PD has any effect on TGF-β production and collagen accumulation. These are two known factors for fibrotic lesion.
As shown by FIG. 1, sections A-C were immunohistochemically stained with specific antibody against TGF-β with brown color indicating TGF-β protein expression in kidney cells. All sections were also counterstained lightly with hematoxylin for viewing non-TGF-β stained cells.
Also shown by FIG. 2, type I and III collagen were analyzed by immunohistochemistry. The typical fibrotic fiber was viewed as brown color. There are a […] accumulation of both type I (B) and type III (E) collagen on the fibrotic kidney of UUO model. […] Reduced collagen level can be interpreted as the reduced ECM.

[3] = system: Kun Ming (KM) mice infected with Schistosoma miracidium; assay: Schistosomial liver fibrosis in Kun Ming mice, egg granuloma area and immunohistology; format: in vivo; conditions: for Schistosomo Egg Granuloma Area, Mean: all after Pyquiton 650 mg/kg 4 days, AKF-PD 500 mg/kg daily gavage, γ-interferon 50,000 unit daily i.m., 8 weeks
From the text: Kun Ming (KM) mice were infected with Schistosoma miracidium to induce schistosomial liver fibrosis. […] Ten Schistosoma miracidium were placed on shaved abdominal skin of each mouse for infection. […] Five hundred mg/kg AKF-PD were given daily by gavage to the disinfected mice of infected/AKF-PD group. The disinfected mice were given (i.m.) 50,000 unit γ-interferon daily. […] Drug or normal saline treatment was continued for 8 weeks. All mice were sacrificed one week after discontinue of drug treatment, and the left lobe of liver from each mouse was taken for pathological examination. Examination of HE-stained slices of liver tissue were carried out as follows. In general, after 16 weeks of Schistosoma miracidia infection, the area of schistosomo egg granuloma would directly correlate to the severity of liver fibrosis. Therefore, the area of schistosomo egg granuloma was measured using a high-resolution, color pathology graphic analyzer (HPIAS-1000). The sum of area of 5 granuloma with abundant eggs and the sum of area of 5 granuloma with few eggs were measured for each slice.

Kun Ming (KM) mice = assay: Acute oral toxicity in Kun Ming mice, LD50 by Bliss method; conditions: mouse, in vivo
Procedure: Male and female Kun Ming (KM) mice weighing between 18 g-22 g were acquired from the animal facility of Hsiang-Ya Medical College, the Central South University. Fifty Kun Ming mice were randomly assigned into 5 groups with 5 male and 5 female mice for each group. The animals went through fasting with a normal water supply before starting drug treatment (either AKF-PD or PIRFENIDONE). The drug was administrated orally by gavage. The volume of liquid drug was 20 ml/kg body weight. The range of dosage for AKF-PD administrated was from 1071 mg/kg to 6000 mg/kg. The dosage difference between two adjacent doses was 1:0.65 (a dose vs the next lower dose). All animals were maintained under a regular condition. Acute toxic reaction and death within 14 days of post drug treatment were recorded. Autopsy was performed on all dead animals and visual examination was performed on all organs.
LD50 was calculated according to Bliss method. […] The results of Table 15 are very close to those reported in the literature: 997.7 mg/kg (U.S. Pat. No. 5,310,562) and 1112 mg/kg(Pharmaceutical Care and Research 5:4823(2005)).

fibroblast = assay: Inhibition of fibroblast, side-by-side comparison of substituents; format: cell-based; conditions: structural formula II, n=1
[4] = compared with pyquiton and Interferon-γ treated

Cc1ccc(=O)n(-c2cccc(F)c2)c1 [AKF-PD, 1-(3′-fluorophenyl)-5-methyl-2(1H)-pyridone]
Histological Score for Interstitial Compartment [1]: 6.43 ± 1.28 | TGF-β production (immunohistochemistry, FIG. 1) [2]: significantly reduced TGF-β production | type I and III collagen accumulation or production (immunohistochemistry, FIG. 2) [2]: significantly blocks type I and III collagen accumulation or production | fibrotic nodule (immunohistological staining, FIG. 3) [3, 4]: much reduced fibrotic nodule | type I collagen accumulation (immunohistological staining, FIG. 4) [3, 4]: much less type I collagen accumulation | Schistosomo Egg Granuloma Area, Mean ([3]; granuloma with abundant eggs): 80155.11 μm^2 | Schistosomo Egg Granuloma Area, Mean ([3]; granuloma with few eggs): 30266.68 μm^2 | LD50 as percent of that of PIRFENIDONE (Kun Ming (KM) mice; both, Kun Ming (KM), 14 days): 30% | LD50 95% confidence limit (Kun Ming (KM) mice; both, Kun Ming (KM), po, 14 days): (2402.70 − 3695.73) mg/kg | toxicity relative to that of PIRFENIDONE (Kun Ming (KM) mice): one third | activity inhibiting fibroblast (fibroblast): activities inhibiting fibroblast
